Assay results from ChEMBL document CHEMBL1130650, “Nitroglycosylated meso-arylporphyrins as photoinhibitors of gram positive bacteria” (1998).
≈ marks a conversion by molar mass, not a printed value. Calls of active or inactive are those of the source. The calls are words filed in the database; no cut-off is given here. Where a SMILES comes first, the peptide text is derived from it. Bridges are numbered along the chain shown (N, C = ends). [ ]: non-standard residue; d: D form. The star is where a group is joined. NMePhe(4-NMe2) = CN[C@@H](Cc1ccc(N(C)C)cc1)C(=O)O; Pip(4-oxo) = O=C1CCN[C@H](C(=O)O)C1; Picolinoyl(3-OH) = O=C(c1ncccc1O)*; Phg = N[C@H](C(=O)O)c1ccccc1; dAbu = CC[C@@H](N)C(=O)O

Experiments:
[1] = system: Staphylococcus aureus; assay: Compound was tested for photoinhibition of Staphylococcus aureus(CIP 53156); Sensitive; format: functional, organism-based
[2] = system: Escherichia coli; assay: Compound was tested for photoinhibition of Escherichia coli (CIP 548T); Sensitive; format: functional, organism-based
[3] = system: Staphylococcus aureus; assay: Compound was tested for photoinhibition of Staphylococcus aureus(CIP 53156); […]; format: functional, organism-based
[4] = system: Escherichia coli; assay: Compound was tested for photoinhibition of Escherichia coli (CIP 548T); Partially resistant; format: functional, organism-based
[5] = system: Staphylococcus aureus; assay: Compound was tested for photoinhibition of Staphylococcus aureus(CIP 53156); format: functional, organism-based
[6] = system: Staphylococcus aureus; assay: Compound was tested for photoinhibition of Staphylococcus aureus(CIP 53156); Partially resistant; format: functional, organism-based
[7] = system: Staphylococcus aureus; assay: Compound was tested for antibacterial activity against Staphylococcus aureus CIP 53156; format: functional
[8] = system: Escherichia coli; assay: Compound was tested for photoinhibition of Escherichia coli (CIP 548T); Resistant; format: functional, organism-based

| SMILES | Antibiotic resistance [1] | Antibiotic resistance [2] | further results |
| --- | --- | --- | --- |
| NC[C@H]1O[C@H](O[C@H]2[C@H](O)[C@@H](O[C@H]3O[C@H](CO)[C@@H](O)[C@H](N)[C@H]3O)[C@H](N)C[C@@H]2N)[C@H](O)[C@@H](O)[C@@H]1O | Sensitive |  |  |
| CN[C@@H]1[C@H](O[C@H]2[C@H](O[C@H]3[C@H](O)[C@@H](O)[C@H](N=C(N)N)[C@@H](O)[C@@H]3N=C(N)N)O[C@@H](C)[C@]2(O)C=O)O[C@@H](CO)[C@H](O)[C@H]1O | Sensitive | Sensitive |  |
| CCn1cc(C(=O)O)c(=O)c2ccc(C)nc21 |  |  | Antibiotic resistance [3]: Resistant |
| CC[C@H]1OC(=O)[C@H](C)[C@@H](O[C@H]2C[C@@](C)(OC)[C@@H](O)[C@H](C)O2)[C@H](C)[C@@H](O[C@@H]2O[C@H](C)C[C@H](N(C)C)[C@H]2O)[C@](C)(O)C[C@@H](C)C(=O)[C@H](C)[C@@H](O)[C@]1(C)O | Partially resistant |  | Antibiotic resistance [4]: Partially resistant |
| CN[C@H](CC(C)C)C(=O)N[C@H]1C(=O)N[C@@H](CC(N)=O)C(=O)N[C@H]2C(=O)N[C@H]3C(=O)N[C@H](C(=O)N[C@H](C(=O)O)c4cc(O)cc(O)c4-c4cc3ccc4O)[C@H](O)c3ccc(c(Cl)c3)Oc3cc2cc(c3O[C@@H]2O[C@H](CO)[C@@H](O)[C@H](O)[C@H]2O[C@H]2C[C@](C)(N)[C@H](O)[C@H](C)O2)Oc2ccc(cc2Cl)[C@H]1O | Sensitive |  |  |
| Nc1ccc(S(N)(=O)=O)cc1 | Sensitive | Sensitive |  |
| CC(=O)OCC1=C(C(=O)O)N2C(=O)[C@@H](NC(=O)Cc3cccs3)[C@H]2SC1 |  |  | Antibiotic resistance [5]: Partially resistant; Antibiotic resistance [4]: Partially resistant |
| CC1(C)S[C@@H]2[C@H](NC(=O)Cc3ccccc3)C(=O)N2[C@H]1C(=O)O | Sensitive |  |  |
| CO[C@H]1/C=C/O[C@@]2(C)Oc3c(C)c(O)c4c(O)c(c(/C=N/N5CCN(C)CC5)c(O)c4c3C2=O)NC(=O)/C(C)=C\C=C\[C@H](C)[C@H](O)[C@@H](C)[C@@H](O)[C@@H](C)[C@H](OC(C)=O)[C@@H]1C | Sensitive | Sensitive |  |
| CC1(C)S[C@@H]2[C@H](NC(=O)[C@H](N)c3ccc(O)cc3)C(=O)N2[C@H]1C(=O)O |  | Sensitive |  |
| O=C(N[C@H](CO)[C@H](O)c1ccc([N+](=O)[O-])cc1)C(Cl)Cl |  | Partially resistant | Antibiotic resistance [6]: Partially resistant |
| O=[N+]([O-])c1ccc(-c2c3nc(c(-c4ccc(OC[C@H]5O[C@H](O)[C@H](O)[C@@H](O)[C@@H]5O)cc4)c4nc(c(-c5ccc(OC[C@H]6O[C@H](O)[C@H](O)[C@@H](O)[C@@H]6O)cc5)c5ccc([nH]5)c(-c5ccc(OC[C@H]6O[C@H](O)[C@H](O)[C@@H](O)[C@@H]6O)cc5)c5ccc2[nH]5)C=C4)C=C3)cc1 |  |  | CI50 [7]: 10 µg/mL (≈ 8.37 µM) |
| CC[C@H]1NC(=O)[C@@H](NC(=O)c2ncccc2O)[C@@H](C)OC(=O)[C@H](c2ccccc2)NC(=O)[C@@H]2CC(=O)CCN2C(=O)[C@H](Cc2ccc(N(C)C)cc2)N(C)C(=O)[C@@H]2CCCN2C1=O ({Picolinoyl(3-OH)}-T[dAbu]P[NMePhe(4-NMe2)][Pip(4-oxo)][Phg]; ester 1-C) |  |  | Antibiotic resistance [8]: Resistant |
| CN(C)[C@@H]1C(O)=C(C(N)=O)C(=O)[C@@]2(O)C(O)=C3C(=O)c4c(O)cccc4[C@@](C)(O)[C@H]3C[C@@H]12 | Active | Active |  |
